System: 996289-038-R-J1-PDC spheroid viability
Experiment: Anticancer human tumor 996289-038-R-J1-PDC patient-derived colon adenocarcinoma cell line growth inhibition [PI3K]
Settings: spheroids with HUVEC and MSC; for IC50: curve of first compound; for viability, T/C: stronger effect = lower value; active = viability on the fitted dose curve at most 10% of control; inactive = the rest
Method in brief: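 Three cell types, namely tumor cells, endothelial cells and mesenchymal stem cells, formed each spheroid. Combinations with four PI3K inhibitors were screened at clinically achievable concentrations decreasing by half-log, and spheroid viability was recorded.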

[1] = second compound 0.0316 µM, first compound 0.0316 µM
[2] = second compound 0.0316 µM, first compound 0.1 µM
[3] = second compound 0.0316 µM, first compound 0.316 µM
[4] = second compound 0.0316 µM, first compound 1 µM
[5] = second compound 0.0316 µM, first compound 3.16 µM
[6] = second compound 0.0316 µM, first compound 10 µM
[7] = second compound 0.1 µM, first compound 0.0316 µM
[8] = second compound 0.1 µM, first compound 0.1 µM
[9] = second compound 0.1 µM, first compound 0.316 µM
[10] = second compound 0.1 µM, first compound 1 µM
[11] = second compound 0.1 µM, first compound 3.16 µM
[12] = second compound 0.1 µM, first compound 10 µM
[13] = second compound 0.316 µM, first compound 0.0316 µM
[14] = second compound 0.316 µM, first compound 0.1 µM
[15] = second compound 0.316 µM, first compound 0.316 µM
[16] = second compound 0.316 µM, first compound 1 µM
[17] = second compound 0.316 µM, first compound 3.16 µM
[18] = second compound 0.316 µM, first compound 10 µM
[19] = second compound 1 µM, first compound 0.0316 µM
[20] = second compound 1 µM, first compound 0.1 µM
[21] = second compound 1 µM, first compound 0.316 µM
[22] = second compound 1 µM, first compound 1 µM
[23] = second compound 1 µM, first compound 3.16 µM
[24] = second compound 1 µM, first compound 10 µM
[25] = second compound 3.16 µM, first compound 0.0316 µM
[26] = second compound 3.16 µM, first compound 0.1 µM
[27] = second compound 3.16 µM, first compound 0.316 µM
[28] = second compound 3.16 µM, first compound 1 µM
[29] = second compound 3.16 µM, first compound 3.16 µM
[30] = second compound 3.16 µM, first compound 10 µM
[31] = second compound 10 µM, first compound 0.0316 µM
[32] = second compound 10 µM, first compound 0.1 µM
[33] = second compound 10 µM, first compound 0.316 µM
[34] = second compound 10 µM, first compound 1 µM
[35] = second compound 10 µM, first compound 3.16 µM
[36] = second compound 10 µM, first compound 10 µM
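Also: spheroids exposed to compounds for seven days before viability read.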
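For viability, T/C in this document: luminescence used as a proxy for viable cell amount; percent viability relative to DMSO vehicle control as 100%.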

C#Cc1c(F)ccc2cc(O)cc(-c3ncc4c(N5CC6CCC(C5)N6)nc(OCC56CCCN5CC(F)C6)nc4c3F)c12 (stereo not given) + Cc1nc(NC(=O)N2CCCC2C(N)=O)sc1-c1ccnc(C(C)(C)C(F)(F)F)c1
0.0777 µM: IC50 (second compound 3.16 µM)
1.67 µM: IC50 (second compound 0.0316 µM)
0.156 µM: IC50 (second compound 1 µM)
active: viability, T/C [36] 6.74%
< 0.0316 µM: IC50 (second compound 10 µM)
0.61 µM: IC50 (second compound 0.1 µM)
inactive: viability, T/C [1] 80.9% | viability, T/C [2] 77.1% | viability, T/C [3] 66.6% | viability, T/C [4] 53.9% | viability, T/C [5] 45.4% | viability, T/C [6] 40.2% | viability, T/C [7] 94.4% | viability, T/C [8] 78.5% | viability, T/C [9] 55.6% | viability, T/C [10] 45.1% | viability, T/C [11] 39.6% | viability, T/C [12] 33.4% | viability, T/C [13] 72.9% | viability, T/C [14] 55% | viability, T/C [15] 50.8% | viability, T/C [16] 40.1% | viability, T/C [17] 37.8% | viability, T/C [18] 27.8% | viability, T/C [19] 65.5% | viability, T/C [20] 54.8% | viability, T/C [21] 42.6% | viability, T/C [22] 33.2% | viability, T/C [23] 27.8% | viability, T/C [24] 23.4% | viability, T/C [25] 64% | viability, T/C [26] 47.2% | viability, T/C [27] 30.5% | viability, T/C [28] 26.8% | viability, T/C [29] 23.3% | viability, T/C [30] 16.9% | viability, T/C [31] 37.6% | viability, T/C [32] 35.6% | viability, T/C [33] 22.2% | viability, T/C [34] 16.7% | viability, T/C [35] 14.5%
0.291 µM: IC50 (second compound 0.316 µM)

C=CC(=O)N1CCN(c2nc(=O)n(-c3c(C)ccnc3C(C)C)c3nc(-c4c(O)cccc4F)c(F)cc23)C(C)C1 (stereo not given) + Cc1nc(NC(=O)N2CCCC2C(N)=O)sc1-c1ccnc(C(C)(C)C(F)(F)F)c1
0.0454 µM: IC50 (second compound 10 µM)
> 10 µM: IC50 (second compound 0.0316 µM) | IC50 (second compound 0.1 µM) | IC50 (second compound 0.316 µM) | IC50 (second compound 1 µM) | IC50 (second compound 3.16 µM)
inactive: viability, T/C [1] 91.4% | viability, T/C [2] 107% | viability, T/C [3] 111% | viability, T/C [4] 116% | viability, T/C [5] 115% | viability, T/C [6] 114% | viability, T/C [7] 87.5% | viability, T/C [8] 90.4% | viability, T/C [9] 90.5% | viability, T/C [10] 96.7% | viability, T/C [11] 122% | viability, T/C [12] 93.5% | viability, T/C [13] 79.8% | viability, T/C [14] 95.2% | viability, T/C [15] 94.7% | viability, T/C [16] 83.6% | viability, T/C [17] 97.5% | viability, T/C [18] 89.9% | viability, T/C [19] 88.6% | viability, T/C [20] 85.8% | viability, T/C [21] 75.6% | viability, T/C [22] 87.5% | viability, T/C [23] 77.6% | viability, T/C [24] 80.1% | viability, T/C [25] 59.5% | viability, T/C [26] 71.7% | viability, T/C [27] 74.7% | viability, T/C [28] 61.6% | viability, T/C [29] 64.4% | viability, T/C [30] 59.5% | viability, T/C [31] 50.5% | viability, T/C [32] 50.7% | viability, T/C [33] 43.2% | viability, T/C [34] 40.6% | viability, T/C [35] 48.8% | viability, T/C [36] 47.4%

CC(Cn1ccc(-c2ccc(C#N)c(Cl)c2)n1)NC(=O)c1cc(C(C)O)[nH]n1 (stereo not given) + Cc1nc(NC(=O)N2CCCC2C(N)=O)sc1-c1ccnc(C(C)(C)C(F)(F)F)c1
inactive: viability, T/C [1] 84% | viability, T/C [2] 86.7% | viability, T/C [3] 95.2% | viability, T/C [4] 109% | viability, T/C [5] 98.9% | viability, T/C [6] 91.8% | viability, T/C [7] 96.6% | viability, T/C [8] 89.7% | viability, T/C [9] 97.8% | viability, T/C [10] 94.4% | viability, T/C [11] 92.4% | viability, T/C [12] 92.3% | viability, T/C [13] 95.8% | viability, T/C [14] 85.3% | viability, T/C [15] 85% | viability, T/C [16] 77.3% | viability, T/C [17] 78.3% | viability, T/C [18] 85.3% | viability, T/C [19] 68.8% | viability, T/C [20] 82.4% | viability, T/C [21] 80.9% | viability, T/C [22] 89.9% | viability, T/C [23] 77% | viability, T/C [24] 69.3% | viability, T/C [25] 58.5% | viability, T/C [26] 55.8% | viability, T/C [27] 66.6% | viability, T/C [28] 66.7% | viability, T/C [29] 72.7% | viability, T/C [30] 50.9% | viability, T/C [31] 49% | viability, T/C [32] 43.1% | viability, T/C [33] 48.9% | viability, T/C [34] 42.3% | viability, T/C [35] 43.1% | viability, T/C [36] 46.4%
< 0.0316 µM: IC50 (second compound 10 µM)
> 10 µM: IC50 (second compound 0.0316 µM) | IC50 (second compound 0.1 µM) | IC50 (second compound 0.316 µM) | IC50 (second compound 1 µM) | IC50 (second compound 3.16 µM)

CC1(C)CCC(Nc2ncc(C(F)(F)F)c(-c3c[nH]c4c(P(C)(C)=O)c(C#N)ccc34)n2)CN1 (stereo not given) + Cc1nc(NC(=O)N2CCCC2C(N)=O)sc1-c1ccnc(C(C)(C)C(F)(F)F)c1
inactive: viability, T/C [1] 103% | viability, T/C [2] 86.8% | viability, T/C [3] 75.6% | viability, T/C [4] 90.1% | viability, T/C [5] 92.2% | viability, T/C [6] 25.6% | viability, T/C [7] 89.9% | viability, T/C [8] 74.1% | viability, T/C [9] 88.2% | viability, T/C [10] 85% | viability, T/C [11] 91.3% | viability, T/C [12] 30.8% | viability, T/C [13] 75.5% | viability, T/C [14] 78% | viability, T/C [15] 85.8% | viability, T/C [16] 79% | viability, T/C [17] 80.2% | viability, T/C [18] 24% | viability, T/C [19] 75% | viability, T/C [20] 70% | viability, T/C [21] 70.8% | viability, T/C [22] 69.7% | viability, T/C [23] 68.1% | viability, T/C [24] 21.4% | viability, T/C [25] 62.5% | viability, T/C [26] 57.9% | viability, T/C [27] 55.9% | viability, T/C [28] 58.7% | viability, T/C [29] 55% | viability, T/C [30] 13.1% | viability, T/C [31] 41.9% | viability, T/C [32] 46% | viability, T/C [33] 41.7% | viability, T/C [34] 38.8% | viability, T/C [35] 36.9% | viability, T/C [36] 10.2%
4.92 µM: IC50 (second compound 1 µM)
6.45 µM: IC50 (second compound 0.0316 µM)
6.7 µM: IC50 (second compound 0.1 µM)
< 0.0316 µM: IC50 (second compound 10 µM)
3.62 µM: IC50 (second compound 3.16 µM)
5.83 µM: IC50 (second compound 0.316 µM)

Cn1nccc1Nc1nccc(-c2ccn(C(CO)c3ccc(Cl)c(F)c3)c(=O)c2)n1 (stereo not given) + Cc1nc(NC(=O)N2CCCC2C(N)=O)sc1-c1ccnc(C(C)(C)C(F)(F)F)c1
3.56 µM: IC50 (second compound 3.16 µM)
3.53 µM: IC50 (second compound 1 µM)
< 0.0316 µM: IC50 (second compound 10 µM)
> 10 µM: IC50 (second compound 0.0316 µM) | IC50 (second compound 0.1 µM) | IC50 (second compound 0.316 µM)
inactive: viability, T/C [1] 106% | viability, T/C [2] 114% | viability, T/C [3] 108% | viability, T/C [4] 85.8% | viability, T/C [5] 97% | viability, T/C [6] 55.2% | viability, T/C [7] 107% | viability, T/C [8] 96.8% | viability, T/C [9] 101% | viability, T/C [10] 85.6% | viability, T/C [11] 70.2% | viability, T/C [12] 52.1% | viability, T/C [13] 92.5% | viability, T/C [14] 84.5% | viability, T/C [15] 101% | viability, T/C [16] 72.7% | viability, T/C [17] 61.4% | viability, T/C [18] 49.5% | viability, T/C [19] 76.8% | viability, T/C [20] 90% | viability, T/C [21] 72.5% | viability, T/C [22] 62% | viability, T/C [23] 54.1% | viability, T/C [24] 38.8% | viability, T/C [25] 54.8% | viability, T/C [26] 57.4% | viability, T/C [27] 63% | viability, T/C [28] 54.9% | viability, T/C [29] 52.9% | viability, T/C [30] 27.1% | viability, T/C [31] 44.7% | viability, T/C [32] 40.6% | viability, T/C [33] 57.9% | viability, T/C [34] 34.7% | viability, T/C [35] 29.4% | viability, T/C [36] 15.7%

From PubChem BioAssay AID1963965 (Molecular Pharmacology Branch, DTP, NCI, 2024)
